The EC50 is the concentration giving half of the maximal effect. In general, IC50 refers to the concentration at which inhibition is half-maximal. By solubility is commonly meant the concentration that dissolves in the medium under given conditions. The Papp is a coefficient for how fast a substance crosses the barrier. A word on the fraction unbound: it is free concentration divided by total concentration. By CL/F is commonly meant clearance divided by bioavailability, as obtained after extravascular dosing.

For data set [1], the system named is protein O‐GlcNAc modification in human embryonic kidney cells. Kind of data set: Cellular protein O-GlcNAc increase. Particulars: read-out: Protein O‐GlcNAc (cellular) Relative EC50. It is filed as cell-based.
The target of data set [2] is human ether‐à‐go‐go (hERG) channel (Homo sapiens, UniProt Q12809). Kind of data set: hERG channel inhibition. It counts as biochemical. (In general: Block of hERG is tested as a sign of cardiac risk.)
A short description of another data set: Solubility. It counts as physicochemical. Particulars: phosphate buffer, pH 7.5, aqueous buffer.
Data set [3] can be described thus: MDCK passive permeability. It is filed as in vitro ADME, canine. The following applies: dog.
A short description of data set [4]: Plasma protein binding, mice. It is filed as in vitro ADME. Particulars: mouse.
A short description of data set [5]: Phase 1 clinical safety and tolerability. It counts as in vivo, human.
Data set [6] is described as follows: Clinical pharmacokinetics in Phase 1 studies. It is filed as in vivo, human.
Data set [7] in a line: Phase 2 study PROSPECT-ALZ in early symptomatic AD. It counts as in vivo, human. The following applies: Prospect‐ALZ Phase 2 study; full results to be published separately.
The next data set can be described thus: Predicted human PK. The following applies: allometry from rat, dog, monkey PK.
The mark [8] stands for this setting: SAD study, single oral doses 0.15 to 16 mg.

In brackets after ≈: the same amount, converted by molar mass.

human ether‐à‐go‐go (hERG) channel, sequence (Q12809 whole entry): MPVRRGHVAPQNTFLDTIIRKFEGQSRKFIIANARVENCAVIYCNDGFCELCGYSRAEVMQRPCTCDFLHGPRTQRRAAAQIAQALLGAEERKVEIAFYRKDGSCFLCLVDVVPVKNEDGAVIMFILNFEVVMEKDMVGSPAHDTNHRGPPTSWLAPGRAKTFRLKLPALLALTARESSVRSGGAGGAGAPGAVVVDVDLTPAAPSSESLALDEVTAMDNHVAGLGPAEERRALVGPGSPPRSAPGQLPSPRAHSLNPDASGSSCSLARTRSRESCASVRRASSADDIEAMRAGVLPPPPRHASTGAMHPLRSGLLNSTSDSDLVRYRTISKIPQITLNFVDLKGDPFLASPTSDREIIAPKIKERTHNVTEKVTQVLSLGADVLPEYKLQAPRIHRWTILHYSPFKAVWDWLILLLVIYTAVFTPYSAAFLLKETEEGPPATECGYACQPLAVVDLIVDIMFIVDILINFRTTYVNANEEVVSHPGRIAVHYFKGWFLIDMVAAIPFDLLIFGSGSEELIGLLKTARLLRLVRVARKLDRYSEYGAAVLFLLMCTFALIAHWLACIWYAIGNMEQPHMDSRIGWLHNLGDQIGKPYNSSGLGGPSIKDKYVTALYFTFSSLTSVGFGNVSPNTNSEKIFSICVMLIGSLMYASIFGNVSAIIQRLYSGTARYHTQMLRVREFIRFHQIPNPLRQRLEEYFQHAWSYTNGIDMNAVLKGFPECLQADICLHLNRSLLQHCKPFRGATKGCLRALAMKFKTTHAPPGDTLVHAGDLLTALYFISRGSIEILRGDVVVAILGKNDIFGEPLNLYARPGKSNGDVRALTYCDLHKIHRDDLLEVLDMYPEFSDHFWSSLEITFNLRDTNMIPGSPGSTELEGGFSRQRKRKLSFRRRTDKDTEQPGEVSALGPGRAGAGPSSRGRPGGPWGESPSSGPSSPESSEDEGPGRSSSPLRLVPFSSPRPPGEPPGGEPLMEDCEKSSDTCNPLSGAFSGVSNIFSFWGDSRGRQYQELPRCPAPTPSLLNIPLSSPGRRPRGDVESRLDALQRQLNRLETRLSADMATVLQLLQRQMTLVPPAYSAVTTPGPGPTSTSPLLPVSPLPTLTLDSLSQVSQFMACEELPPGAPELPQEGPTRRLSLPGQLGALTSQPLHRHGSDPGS

Take `CC(=O)Nc1nc(F)c(CN2CC[C@H](OCc3noc(C)n3)C[C@@H]2C)s1` [ceperognastat]: the EC50 in data set [1] was 0.0219 ± 0.0073 µM. In [2], this compound gave a half-inhibitory concentration (IC50) of 81 µM. Also, the solubility in the data set “Solubility” turned out to be 1360 µg/mL (≈ 3.55 mM). The Papp in data set [3] was determined as 50.1 ×10⁻⁶ cm/s. The free fraction (fraction unbound) in data set [4] came out at 0.684. The “participants reporting at least one TEAE” value in [5] (MD‐PET study, 1 mg QD 14 days) was “Four out of four”. In data set [5] (SAD study, 13 of 23 ceperognastat-treated participants), the “participants reporting TEAEs” value is given as 56.5%. For the same compound, in data set [5] (SD‐PET study, 8 of 16 participants, single oral dose), the “participants reporting at least one TEAE” value turned out to be 50%. Further, the “serious adverse events (SAEs)” value in data set [5] (all Phase 1 clinical studies) is on record as “no serious adverse events”. The “accumulation with QD dosing” value in data set [6] (MAD study, 1, 3, 7 mg QD for 14 days, day 1 vs day 14) is “minimal accumulation”. Besides, in data set [6] (setting [8]), the apparent clearance CL/F is listed as 12 L/h and the V/F is given as 112 L. The “clinical benefit in early AD” value in data set [7] is “did not show evidence of clinical benefit”. Further, in “Predicted human PK”, the “predicted human apparent clearance (CL/F)” value is listed as 12 L/h and the “predicted human apparent volume of distribution (V/F)” value is given as 48 L.

The values above are taken from paper PMC11694536 (Alzheimer's & Dementia : Translational Research & Clinical …, 2024).
